These are literature values, as cited in US20080070991A1 (priority 2006, published 2008).

In the data set the test system is stilbene synthase. The following applies: Barbera cell suspensions treated with 10 μm methyljasmonate.

Turning to `CC/C=C\CC1C(=O)CCC1CC(=O)OC` (stereo not shown) [methyljasmonate, Methyljasmonate], the “stilbene synthase expression (gel analysis)” value is “up-regulation of the stilbene synthase”.
